This note sets out measurements from a melting point compilation (Tetko et al.; mined from patent text by program, amines drawn as free bases though some values may be those of a salt).

In turn, `CN1C[C@H](CCN2CCN(C(c3ccccc3)c3ccccc3)CC2)C[C@@H]2c3cccc4[nH]cc(c34)C[C@H]21` had a melting point of 206 to 212 °C.
`CCc1c(C(=O)c2cc(C)cc(C)c2)n(CC=C(C)C)c(=O)[nH]c1=O` gave a melting point of 255 to 260 °C.
`Cc1ncccc1CN(CCn1cc(C)c2occc2c1=O)Cc1ccc2c(c1)NC(=O)C(C)(C)C(=O)N2CC1CC1` came in with a melting point of 220 to 221 °C.
The figure for `CCCCCCc1ccc(C=Cc2cc3cc4ccccc4cc3s2)cc1` is 300 to 302 °C.
Compound `O=C(O)c1cn(-c2cnsn2)c2nc(N3CCCC3)c(F)cc2c1=O` showed a melting point of 269 to 273 °C.
The compound `O[C@@H]1CNCC[C@H]1Oc1ccc2c(c1)CCCC2` (relative stereo) yielded a melting point of 125 to 127 °C.
In the case of `CCCc1cnn2c(O)cc(CC)nc12`, the melting point is 279 to 281 °C.
Consider `O=C1Nc2cccc(Br)c2C12COc1cc3c(cc12)OCCO3` (stereo unspecified), for which the melting point was > 250 °C.
The figure for `COc1ccc(C2SCC(C(=O)O)N2C(=O)OC(C)(C)C)cc1` (stereo unspecified) is 160 to 162 °C; for `NC(=S)NC1CCCc2sccc21` (stereo unspecified) it is 129 to 131 °C.
`Cc1nc2c(C=O)cccn2c1[N+](=O)[O-]`: the melting point was in the range of 182 to 184 °C.
On to `CN(C)CCCOc1ccc(-c2ccc(C(=O)O)cc2)cc1-c1ccc2c(c1)C(C)(C)CCC2(C)C`, for which the melting point stood at 199 °C.
The compound `N#Cc1ccc(C(F)(F)F)cc1N=NN(C(=O)Nc1ccccc1)c1cc(C(F)(F)F)ccc1C#N` displayed a melting point of 157 to 158 °C.
As for `COCc1c(S(C)(=O)=O)ccc(C(=O)O)c1Cl`, the figure is 137 to 141 °C.
`CCN(CC)CCNC(=O)c1cccc2c(=O)c3cccc(I)c3[nH]c12` displayed a melting point of 148 to 150 °C.
For `O=P(O)(O)C(NCCCCOc1ccccc1)P(=O)(O)O`, the melting point fell in the range of 206 to 208 °C.
In turn, `CC(CO)Oc1ccc2c(c1)c(-c1cc3cccnc3[nH]1)cn2C` (stereo unspecified) had a melting point of 164 to 165 °C.
Turning to `Cc1ccccc1-n1cnnc1C(F)(F)F`, the melting point amounted to 75 °C.
For `COc1ccc(NC(=O)c2ccc(F)c(F)c2)cc1NCc1cccc(O)c1`, the melting point is 174 to 176 °C.
As for `O=C1OCCC1=Cc1ccccc1OCC(O)CN1CCC(c2ccc(Cl)c(F)c2)CC1` (stereo unspecified), the melting point fell in the range of 114 to 115 °C.
The figure for `CCOC(=O)C1Cc2cc(OC)c(OC)cc2N1C(=O)CCSC(C)=O` (stereo unspecified) is 104 to 106 °C; for `COc1ccc(CCNc2nc(Cl)ccc2[N+](=O)[O-])cc1OC` it is 132 to 133 °C.
`CC(O)Cn1nc(Br)c([N+](=O)[O-])c1NCc1ccccc1` (stereo unspecified) gave a melting point of 81.3 °C.
The compound `CCCc1nc2c(N)nc3ccccc3c2n1CC(C)(C)C(=O)N1CCOCC1` displayed a melting point of 212 to 214 °C.
The figure for `Cc1cc(NC(=O)C(CSC(=O)CC(C)C)Cc2ccccc2)cc(C(=O)O)c1` (stereo unspecified) is 153 to 157 °C.
In turn, `CC[C@H](C)[C@H](NC(=O)NC(C)C)C(=O)N[C@H](CO)Cc1c[nH]c2ccccc12` showed a melting point of 211 to 213 °C.
Take `COC(=O)c1cc(-c2ccc(C)cc2)no1`: the melting point was 106 to 108 °C.
In turn, `O=C1NCc2c1cccc2-c1cccc2cc(Cc3cccc(C(F)(F)F)c3)sc12` gave a melting point of 195 to 196 °C.
As for `CS(=O)(=O)c1ccc(-c2cnn(-c3cc(F)cc(F)c3)c(=O)c2Oc2ccc(F)cc2)cc1`, the melting point is 209 to 211 °C.
The compound `CCN(CC)C(=O)C1CN2CCC1C(NCc1ccccc1OC)C2C(c1ccccc1)c1ccccc1` (stereo unspecified) came in with a melting point of 121 to 123 °C.
Take `Cc1nc(N2CCCC(Cc3ccc(C(F)(F)F)cc3)C2=O)sc1C(=O)NCc1cccc(F)c1` (stereo unspecified): the melting point lay within 177 to 178 °C.
`Cc1cccc(N(c2cccc(C)c2)c2c(N(c3cccc(C)c3)c3cccc(C)c3)c3ccccc3c3ccccc23)c1` showed a melting point of 223 to 224 °C.
The figure for `COc1cccc(CNc2ccc(C(C)=O)cc2)c1OCCCC(=O)O` is 85 to 95 °C.
Regarding `CC(C)NC(=O)c1coc2ccccc2c1=O`, the melting point was 104 to 106 °C.
In turn, `CCCCCCCNC(=O)Nc1ccc(OCC)cc1C(=O)NCC1CCN(C(c2ccccc2)c2ccccc2)CC1` registered a melting point of 188 to 189 °C.
Consider `ClCCCCOc1ccc(OCCCCCl)cc1`, for which the melting point fell in the range of 158 to 159 °C.
As to `COC(=O)[C@H](Cc1c[nH]cn1)NC(=O)[C@H](Cc1ccccc1)NC(=O)[C@H](Cc1ccccc1)NC(=O)C(C)(C)C`, the melting point was 128 to 131 °C.
The figure for `N#Cc1cccc2c1COc1ccc(OCc3ccc4cc(F)c(Cl)cc4n3)cc1C2SCCC(=O)O` (stereo unspecified) is 125 to 128 °C.
The compound `CC1=C(C#CC2=C(/C=C/C(C)=C/C(=O)O)CCC2)C(C)(C)CCC1` registered a melting point of 173 to 174 °C.
Compound `CN(C)C1(c2ccccc2)CCC2(CC1)NCCc1c2[nH]c2ccccc12` (stereo unspecified) yielded a melting point of 214 to 218 °C.
Take `Nc1cccc(C(=O)NCc2ccccc2)c1`: the melting point is 95 to 100 °C.
Compound `Cc1ccc2c(c1)C(C(=O)Nc1c(C)cccc1Cl)c1ccccc1CO2` (stereo unspecified) displayed a melting point of 160 to 161 °C.
In turn, `CC(=O)SCC(Cc1ccc(C)cc1)C(=O)Nc1cccc(C(=O)O)c1C` (stereo unspecified) yielded a melting point of 206 to 208 °C.
`CC(=O)NC[C@H]1CN(c2ccc3c(c2)CCS(=O)(=O)C3)C(=O)O1` showed a melting point of 177 to 178 °C.
Compound `CNC(=O)CCCSc1nccc(NC(N)=NCC(F)(F)F)n1` came in with a melting point of 153 to 155 °C.
Regarding `CCn1c(C)nc(N2CCc3nc(N)sc3CC2)c([N+](=O)[O-])c1=O`, the melting point is > 200 °C.
As for `CN1C2CCCC1CC(NC(=O)c1cccc3oc(-c4ccccc4)nc13)C2` (stereo unspecified), the figure is 182 to 185 °C.
In turn, `CC(C)(C)c1ccc(CO)cc1NC(=O)CC1c2ccccc2Oc2ccccc21` registered a melting point of 137 to 138 °C.
Compound `Cc1ccc(F)c(OCCCC(=O)O)c1` registered a melting point of 62 to 64 °C.
Consider `O=C(Nc1ccn(C2OC(CO)C(O)C2(F)F)c(=O)n1)OCc1ccc([N+](=O)[O-])s1` (stereo unspecified), for which the melting point was 144 to 148 °C.
Consider `CC(Cl)(Cl)C(NC(=O)c1cc(Cl)cc(Cl)c1)NC(=NC#N)Nc1ccc(Cl)nc1` (stereo unspecified), for which the melting point was in the range of 138 to 140 °C.
As to `CCCCCCCCCCCSCCCN=C=O`, the melting point fell in the range of 91 to 93 °C.
Take `O=C1CCc2cc(Br)c(NC(=O)C(F)(F)F)cc21`: the melting point turned out to be 220 °C.
The compound `CN1C(=O)c2cc(N/C(=C3\C(=O)Nc4ccc([N+](=O)[O-])cc43)c3ccccc3)ccc2C(C)(C)C1=O` yielded a melting point of 169 to 171 °C.
Compound `O=C1N=CC(OCC2CCC2)(C(F)(F)F)c2cc(F)ccc2N1` (stereo unspecified) showed a melting point of 190 to 191 °C.
On to `CN1CCC(O)(c2ccccc2[N+](=O)[O-])CC1`, for which the melting point fell in the range of 166 to 167 °C.
`COc1ccc(CCNC(=O)/C=C/c2cccs2)cc1S(N)(=O)=O` had a melting point of 218 to 221 °C.
The compound `CSc1ccc(C=CC(N)=NO)s1` gave a melting point of 70 to 71 °C.
As for `CN1CCC(O)(c2cccc3ccc(N(Cc4ccccc4)Cc4ccccc4)cc23)CC1`, the figure is 173 to 174 °C; as for `Cc1cnc(NC(=O)C2=C(O)c3ccc(F)cc3S(=O)(=O)N2C)s1`, 233 °C.
For `CC(C)(C)c1nc(C(N)=S)nc(C(C)(C)C)c1O`, the melting point is 169 to 171 °C.
Consider `CCOC(=O)c1c(N2CCN(C)CC2)c2cc(Cl)ccc2n(C)c1=O`, for which the melting point was in the range of 163 to 165 °C.
Compound `O=C(NCc1ccc(Cl)cc1)c1cnc2sc(C#CCCO)cc2c1O` showed a melting point of 242 to 246 °C.
`O=C1O[C@@H]2C[C@@]1(O)c1cc(Cc3ccccc3)sc1[C@H]2O` registered a melting point of 116 to 118 °C.
In the case of `CC(C)(C)OC(=O)N1CC2CC(CN(CCCOc3ccc(C#N)cc3O)C2)C1`, the melting point lay within 127 to 130 °C.
For `CN1C=CCC(C(=O)OC2CCC3C4CCC5=CC(=O)CCC5(C)C4CCC23C)=C1` (stereo unspecified), the melting point was in the range of 172 to 175 °C.
Consider `CCOC(=O)N1CCN(C(=O)Oc2ccc([N+](=O)[O-])cc2)CC1`, for which the melting point was in the range of 125 to 128 °C.
`COCc1nn(C)c(O)c1C(=O)c1ccc(S(C)(=O)=O)c(COC)c1C`: the melting point lay within 100 to 104 °C.
Compound `O=C(O)CN1C(=O)C(=CC=Cc2ccccc2-c2ccccc2)SC1=S` registered a melting point of 246 to 249 °C.
Compound `NC(=O)c1nccn1C1Cc2ccc(Cl)cc2C1=O` (stereo unspecified) had a melting point of 190 °C.
As to `CCOC(=O)c1ncc2[nH]c3cccc(Oc4ccc(Cl)cn4)c3c2c1C`, the melting point was 194 to 196 °C.
With `CC(NC(=O)N(Cc1csc(C(C)C)n1)C1CC1)C(=O)NC(Cc1ccccc1)CC(O)C(Cc1ccccc1)NC(=O)OCc1cncs1` (stereo unspecified), the melting point was in the range of 65 to 67 °C.
As for `CN(C)Cc1ccc(-c2ccc(C(=O)c3ccc(Br)cc3)c(O)c2)cc1`, the melting point was 85 to 88 °C.
As to `Cc1cc(F)c(Br)cc1CC(=O)O`, the melting point lay within 100 to 101 °C.
On to `CCOC(=O)c1ccc(N)cc1-c1ccc(OC)c(OC)c1`, for which the melting point came to 127 °C.
`CCC(O)(c1ccc(O)cc1)c1cccc(Cl)c1` (stereo unspecified) gave a melting point of 132 to 134 °C.
Take `COc1ccc(-c2nc(S(=O)c3ccccc3)[nH]c2-c2ccc(OC)cc2)cc1` (stereo unspecified): the melting point is 188 to 190 °C.
Take `CC1(C)C(=O)Oc2ccc3cc(C(=O)O)c(Cn4cncn4)cc3c21`: the melting point lay in the range of 262 to 265 °C.
Compound `COC(OC)C(C)(O)c1cnc(C=O)s1` (stereo unspecified) gave a melting point of 98 to 99 °C.
In turn, `Cc1cccc(COc2ccc(CC(NC(=O)c3cn4ccc(-c5ccc(Cl)cc5)cc4n3)C(=O)O)cc2)c1` (stereo unspecified) yielded a melting point of 245 to 246 °C.
For `CCCc1nn(-c2ccc(C(F)(F)F)cn2)cc1CCCOc1nn(CC)cc1CC(=O)O`, the melting point fell in the range of 105 to 106 °C.
The figure for `CC(=O)N1c2ccc(S(=O)(=O)C[N+](=O)[O-])c(C)c2CC1C` (stereo unspecified) is 157 °C; for `CS(=O)(=O)c1ccc(-c2cnn(CC(F)(F)F)c(=O)c2SCC(F)(F)F)cc1` it is 155 to 158 °C; for `Cc1cn(S(=O)(=O)c2ccc(=O)[nH]n2)c2ccccc12` it is > 220 °C.
Compound `COC(=O)NC(=N)c1ccc(-n2nc(C)n(-c3ccc(CCC(=O)OCC(C)C)cc3)c2=O)cc1` had a melting point of 200 to 201 °C.
The figure for `C=CCOc1cc(-n2c(OC)nc(C(F)(F)F)cc2=O)c(F)cc1Br` is 107 to 110 °C.
